How the values were obtained:
recombinant TrxR = biological target: T1, recombinant TrxR (Rattus norvegicus, UniProt O89049); assay: Sec-independent SecTRAP activity (Juglone assay); conditions: for Juglone Act (% @ 100% DTNB inhibition): compound at the concentration that achieves 100% inhibition of TrxR in the DTNB assay
T1 sequence (O89049 1-499): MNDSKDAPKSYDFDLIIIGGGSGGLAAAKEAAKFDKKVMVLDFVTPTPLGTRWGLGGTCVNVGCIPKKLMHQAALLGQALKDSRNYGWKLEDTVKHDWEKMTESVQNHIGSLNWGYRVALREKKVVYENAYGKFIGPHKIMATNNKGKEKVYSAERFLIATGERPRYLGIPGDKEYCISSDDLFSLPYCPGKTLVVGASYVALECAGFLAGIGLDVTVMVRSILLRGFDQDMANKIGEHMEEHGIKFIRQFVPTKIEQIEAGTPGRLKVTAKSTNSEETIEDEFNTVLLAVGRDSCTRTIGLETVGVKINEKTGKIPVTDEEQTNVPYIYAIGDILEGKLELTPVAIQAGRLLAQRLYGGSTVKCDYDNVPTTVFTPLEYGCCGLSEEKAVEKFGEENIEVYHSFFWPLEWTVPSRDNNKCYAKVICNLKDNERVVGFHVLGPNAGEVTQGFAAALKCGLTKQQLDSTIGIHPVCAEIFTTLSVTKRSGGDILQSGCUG
Protocol: SecTRAP forming capabilities of compounds with TrxR was determined using the Juglone Assay. Compounds were incubated in the presence of recombinant TrxR and 250 μM NADPH for 15 minutes at concentrations fully inhibiting enzyme activity in the DTNB assay. 100 μM juglone was then added to each well and NADPH consumption was followed at OD340 to determine sustained reductive capacity at the N-terminus of TrxR (SecTRAP Activity). Activity was determined following the consumption of NADPH over time and normalized to DMSO only (Vehicle) and TrxR lacking (blank) controls.
Aliquots were used in a DTNB assay to determine inhibition of enzyme activity. […] Incubation samples were then added to a reaction buffer containing 250 μM NADPH and 100 μM juglone, whereupon NADPH consumption was followed at OD340 to determine sustained SecTRAP activity.
Higher % values for juglone activity (juglone reduction activity) in this assay are indicative of stronger prooxidant activity.

GR from baker's yeast = biological target: T2, GR from baker's yeast (Saccharomyces cerevisiae, UniProt P41921); assay: Glutathione reductase (GR) activity assay; assay type: biochemical; conditions: Molar concentration
T2 sequence (P41921 17-483 limits assumed): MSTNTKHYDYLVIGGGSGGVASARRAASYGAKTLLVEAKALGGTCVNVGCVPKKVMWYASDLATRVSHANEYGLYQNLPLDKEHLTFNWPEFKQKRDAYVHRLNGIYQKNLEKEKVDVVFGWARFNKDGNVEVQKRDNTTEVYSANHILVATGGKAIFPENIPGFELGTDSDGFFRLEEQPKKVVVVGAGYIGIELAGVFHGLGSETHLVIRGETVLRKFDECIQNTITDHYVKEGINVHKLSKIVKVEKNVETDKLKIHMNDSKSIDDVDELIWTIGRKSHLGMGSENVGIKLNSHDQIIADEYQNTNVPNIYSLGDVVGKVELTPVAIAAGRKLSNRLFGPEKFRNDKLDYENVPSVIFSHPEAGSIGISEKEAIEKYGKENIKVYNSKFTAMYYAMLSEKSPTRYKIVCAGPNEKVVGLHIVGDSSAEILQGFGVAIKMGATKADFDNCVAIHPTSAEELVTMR
Protocol: GR activity was determined incubating compounds at various concentrations with GR from baker's yeast and 250 μM NADPH for 15 minutes, whereupon 10 mM oxidized glutathione (GSSG) was added to each well and NADPH consumption was followed at OD340. Activity was determined following the consumption of NADPH over time and normalized to DMSO only (Vehicle) and GR lacking (blank) controls.

4T1 tumors = assay: Intratumoral immune cell populations in engrafted 4T1 tumors in BALB/c mice (FACS); assay type: in vivo; conditions: 1 mg/kg intratumorally bid for 5 days, day 6
Protocol: Intratumoral immune cell populations within engrafted 4T1 cells in BALB/c mice. 4T1 cells are a murine mammary carcinoma cell line. BALB/c mice are immunocompetent. 1×10^6 4T1 tumor cells in 0% Matrigel were implanted orthotopically into the mammary fat pad. Enrollment of the mice into the treatment arms commenced when the tumors reached an average volume between 175-200 mm^3. […] Tumor volumes were measured using a digital caliper on day 1, 3, and 6 of the study. On day 6 mice were euthanized and tumors were resected for FACs analysis. Populations of murine immune cells including CD45+, CD4+, CD8+, and Tregs were analyzed. CD45+ positive cells were analyzed as the percentage of live cells. CD4+, CD8+, and Tregs cells were analyzed as percentage of CD45+ positive cells.

MDA-MB-453 cells = assay: CellQuanti-Blue cell viability assay, MDA-MB-453; assay type: cell-based
Protocol: (§1) Cell viability was then assessed using the CellQuanti assay. Relative cell viability was determined using DMSO only and blank controls.
(§2) Cells were plated at 2000 cells/well into 96-well plates in media containing 10% FBS. […] CellQuanti-Blue cell viability reagent was added to each well and the plates were subsequently incubated at 37° C. for 3 hours. Viability was determined fluorometrically using an Enspire plate reader […] excitation: 530 nm, emission: 590 nm. Viability was normalized to DMSO controls and blank wells with media.

[1] = test system: U-87 MG (a glioblastoma cell line); assay: MTT cell viability assay, U-87 MG; assay type: cell-based; conditions: Homo sapiens, U-87 MG, 72 hrs
Protocol: (§3) MDA-MB-453 (ATCC HTB-131) cells were grown in media with sodium pyruvate. MDA-MB-231 cells (ATCC HTB-26) were grown in DMEM media or L-15 supplemented with Glutamax (1×). U87-MG (ATCC HTB-14) and MDA-MB-468 (ATCC HTB-132) cells were cultured in DMEM supplemented with Glutamax (1×). NB-4 (DSMZ ACC-207) cells were cultured in RPMI 1640.
(§4) Breast cancer and glioblastoma cell lines were plated 4000 cells/well in 96-well plates in the presence of 10% FBS media. The following day cells were treated with various concentrations of the example compounds (0.1% DMSO final) and incubated for 72 hrs. After the incubation an MTT assay was performed to access cell viability. Percent of viability was determined using DMSO vehicle and no cell (blank) controls.

MDA-MB-231 cells [2] = assay: CellQuanti-Blue cell viability assay, MDA-MB-231; assay type: cell-based, human
Protocol: as §1, §2

MDA-MB-231 cells [3] = assay: Alamar-Blue cell viability assay; assay type: cell-based, human; conditions: Homo sapiens, MDA-MB-231, 72 hrs
Protocol: MDA-MB-231 cells were plated 2000 cells/well in 96-well black optical plates in the presence of 10% FBS media containing 25 nM selenite. The following day cells were treated with various concentrations of compounds (0.1% DMSO final) and incubated for 72 hrs. After the incubation Alamar Blue reagent was added to each well and incubated for additional 3 hrs. Fluorescence was read ex:530 nm/em:590 nm, and percent of viability was determined using DMSO vehicle and no cell (blank) controls.

[4] = test system: MDA-MB-468 (a breast cancer cell line); assay: MTT cell viability assay, MDA-MB-468; assay type: cell-based; conditions: Homo sapiens, MDA-MB-468, 72 hrs
Protocol: as §3, §4

[5] = CellQuanti-Blue, 24, 48 or 72 hours

| Structure (SMILES) | Juglone Act (% @ 100% DTNB inhibition) (recombinant TrxR) [%] | IC50 (GR from baker's yeast) [µM] | CD8+ levels in tumors relative to no treatment controls (4T1 tumors) | ratio of CD8+ cells to Treg cells in tumours (4T1 tumors) | sensitivity of MDA-MB-453 cells over time of exposure (MDA-MB-453 cells; 24, 48, 72 hours (FIG. 2B)) | potency relative to Iniparib in MDA-MB-453 cells (MDA-MB-453 cells; [5]) | IC50 [1] [µM] | sensitivity of MDA-MB-231 cells over time of exposure (MDA-MB-231 cells [2]; 24, 48, 72 hours (FIG. 2A)) | potency relative to Iniparib in MDA-MB-231 cells (MDA-MB-231 cells [2]; [5]) [fold] | IC50 (MDA-MB-231 cells [3]) [µM] | IC50 [4] [µM] | classification as SecTRAP forming agent (recombinant TrxR; DTNB assay inhibited, juglone activity retained) | N-terminal juglone reduction activity (recombinant TrxR; Iniparib at 1 mM compared with OT-1000 at 1 μM (FIG. 1B)) |
| --- | --- | --- | --- | --- | --- | --- | --- | --- | --- | --- | --- | --- | --- |
| CCS(=O)(=O)c1nc(OC)ccc1[N+](=O)[O-] [OT-1129, 2-(ethylsulfonyl)-6-methoxy-3-nitropyridine] | 74.83 | > 30 |  |  |  |  |  |  |  |  |  |  |  |
| CCCCCCCCS(=O)(=O)c1nc(OC)ccc1[N+](=O)[O-] [OT-1096, 6-methoxy-3-nitro-2-(octylsulfonyl)pyridine] | 86.96 | > 30 | significantly increased | increases |  |  |  |  |  |  |  |  |  |
| COc1ccc([N+](=O)[O-])c(S(=O)(=O)c2ccc(Cl)cc2)n1 [OT-1000, 2-((4-Chlorophenyl)sulfonyl)-6-methoxy-3-nitropyridine] |  | > 30 |  |  | increasingly sensitive | more potent | 12.7 | increasingly sensitive | 100 | 3.53 | 9.21 |  |  |
| NC(=O)c1ccc(I)c([N+](=O)[O-])c1 [Iniparib, 4-Iodo-3-nitrobenzamide, reference compound] |  | > 30 | significantly increased | increases |  |  | > 33 |  |  | 54.4 | > 33 | SecTRAP forming compound | retained at a similar level to that obtained for OT-1000 |
